Results from PubChem BioAssay (NCI).
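How tested: cells in 96-well plates exposed to compound for 48 hours at five concentrations. TGI is the concentration that stops growth completely.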

Experiments:
Assay in all cases: inhibition of tumour cell growth, NCI panel, 48 h
T-47D breast = tested on: T-47D breast
UACC-62 melanoma = tested on: UACC-62 melanoma
SNB-75 CNS = tested on: SNB-75 CNS
OVCAR-5 ovarian = tested on: OVCAR-5 ovarian
HS 578T breast = tested on: HS 578T breast
HT29 colon = tested on: HT29 colon
A549 NSCLC = tested on: A549 NSCLC
HCT-116 colon = tested on: HCT-116 colon
MDA-MB-435 = tested on: MDA-MB-435
DU-145 prostate = tested on: DU-145 prostate
SN12C renal = tested on: SN12C renal
ACHN renal = tested on: ACHN renal
RXF 393 renal = tested on: RXF 393 renal
OVCAR-8 ovarian = tested on: OVCAR-8 ovarian
SK-MEL-28 melanoma = tested on: SK-MEL-28 melanoma
LOX IMVI melanoma = tested on: LOX IMVI melanoma
COLO 205 colon = tested on: COLO 205 colon
HCT-15 colon = tested on: HCT-15 colon
SR leukemia = tested on: SR leukemia
NCI-H226 lung = tested on: NCI-H226 lung
SF-268 CNS = tested on: SF-268 CNS
UACC-257 melanoma = tested on: UACC-257 melanoma
HCC-2998 colon = tested on: HCC-2998 colon
U251 CNS = tested on: U251 CNS
CAKI-1 renal = tested on: CAKI-1 renal
MDA-MB-231 breast = tested on: MDA-MB-231 breast
SK-MEL-5 melanoma = tested on: SK-MEL-5 melanoma
SW-620 colon = tested on: SW-620 colon
NCI-H23 lung = tested on: NCI-H23 lung
M14 melanoma = tested on: M14 melanoma
HL-60(TB) leukemia = tested on: HL-60(TB) leukemia
SF-295 CNS = tested on: SF-295 CNS
NCI-H460 lung = tested on: NCI-H460 lung
CCRF-CEM leukemia = tested on: CCRF-CEM leukemia
K-562 leukemia = tested on: K-562 leukemia
SK-OV-3 ovarian = tested on: SK-OV-3 ovarian
SK-MEL-2 melanoma = tested on: SK-MEL-2 melanoma
PC-3 prostate = tested on: PC-3 prostate
KM12 colon = tested on: KM12 colon
MALME-3M melanoma = tested on: MALME-3M melanoma
MDA-N = tested on: MDA-N
IGROV1 ovarian = tested on: IGROV1 ovarian
BT-549 breast = tested on: BT-549 breast
NCI-H522 lung = tested on: NCI-H522 lung
RPMI-8226 leukemia = tested on: RPMI-8226 leukemia
OVCAR-3 ovarian = tested on: OVCAR-3 ovarian
MOLT-4 leukemia = tested on: MOLT-4 leukemia
NCI/ADR-RES ovarian = tested on: NCI/ADR-RES ovarian
SF-539 CNS = tested on: SF-539 CNS
EKVX NSCLC = tested on: EKVX NSCLC
OVCAR-4 ovarian = tested on: OVCAR-4 ovarian
MCF7 breast = tested on: MCF7 breast
SNB-19 CNS = tested on: SNB-19 CNS
TK-10 renal = tested on: TK-10 renal
HOP-62 NSCLC = tested on: HOP-62 NSCLC
786-0 renal = tested on: 786-0 renal
HOP-92 NSCLC = tested on: HOP-92 NSCLC
UO-31 renal = tested on: UO-31 renal

In the case of `COc1cc(C2SC(N)=Nc3c2c(C)nn3C(=O)c2ccc(Cl)cc2)cc(OC)c1OC` (stereo not drawn), the TGI (T-47D breast) is reported as over 10 µM, the TGI (UACC-62 melanoma) is reported as over 10 µM and the TGI (SNB-75 CNS) is reported as over 10 µM. It also gave a TGI (OVCAR-5 ovarian) of over 10 µM, a TGI (HS 578T breast) of over 10 µM and a TGI (HT29 colon) of over 10 µM. It also gave a TGI (A549 NSCLC) of over 10 µM, a TGI (HCT-116 colon) of over 10 µM and a TGI (MDA-MB-435) of over 10 µM. The TGI (DU-145 prostate) was over 10 µM, the TGI (SN12C renal) was over 10 µM and the TGI (ACHN renal) was over 10 µM. It also gave a TGI (RXF 393 renal) of over 10 µM, a TGI (OVCAR-8 ovarian) of over 10 µM and a TGI (SK-MEL-28 melanoma) of over 10 µM. For the same compound, the TGI (LOX IMVI melanoma) was over 10 µM, the TGI (COLO 205 colon) was over 10 µM and the TGI (HCT-15 colon) was over 10 µM. It also gave a TGI (SR leukemia) of over 10 µM, a TGI (NCI-H226 lung) of over 10 µM and a TGI (SF-268 CNS) of over 10 µM. The TGI (UACC-257 melanoma) was over 10 µM, the TGI (HCC-2998 colon) was over 10 µM and the TGI (U251 CNS) was over 10 µM. It also gave a TGI (CAKI-1 renal) of over 10 µM, a TGI (MDA-MB-231 breast) of over 10 µM and a TGI (SK-MEL-5 melanoma) of over 10 µM. The TGI (SW-620 colon) was over 10 µM, the TGI (NCI-H23 lung) was over 10 µM and the TGI (M14 melanoma) was over 10 µM. It also gave a TGI (HL-60(TB) leukemia) of over 10 µM, a TGI (SF-295 CNS) of over 10 µM and a TGI (NCI-H460 lung) of over 10 µM. For the same compound, the TGI (CCRF-CEM leukemia) was over 10 µM, the TGI (K-562 leukemia) was over 10 µM and the TGI (SK-OV-3 ovarian) was over 10 µM. It also gave a TGI (SK-MEL-2 melanoma) of over 10 µM, a TGI (PC-3 prostate) of over 10 µM and a TGI (KM12 colon) of over 10 µM. For the same compound, the TGI (MALME-3M melanoma) was over 10 µM, the TGI (MDA-N) was over 10 µM and the TGI (IGROV1 ovarian) was over 10 µM. It also gave a TGI (BT-549 breast) of over 10 µM, a TGI (NCI-H522 lung) of over 10 µM and a TGI (RPMI-8226 leukemia) of over 10 µM. For the same compound, the TGI (OVCAR-3 ovarian) was over 10 µM, the TGI (MOLT-4 leukemia) was over 10 µM and the TGI (NCI/ADR-RES ovarian) was over 10 µM. The TGI (SF-539 CNS) was over 10 µM, the TGI (EKVX NSCLC) was over 10 µM and the TGI (OVCAR-4 ovarian) was over 10 µM. The TGI (MCF7 breast) was over 10 µM, the TGI (SNB-19 CNS) was over 10 µM and the TGI (TK-10 renal) was over 10 µM. It also gave a TGI (HOP-62 NSCLC) of over 10 µM, a TGI (786-0 renal) of over 10 µM and a TGI (HOP-92 NSCLC) of over 10 µM.

`COc1ccccc1/C=C1\Sc2scc(-c3ccc(O)c(O)c3)[n+]2C1=O` gave a TGI (T-47D breast) of 42.5 µM, a TGI (UACC-62 melanoma) of 32.5 µM and a TGI (OVCAR-5 ovarian) of 85.7 µM. For the same compound, the TGI (HS 578T breast) was over 100 µM, the TGI (HT29 colon) was 41.4 µM and the TGI (A549 NSCLC) was over 100 µM. It also gave a TGI (HCT-116 colon) of 31.3 µM, a TGI (MDA-MB-435) of 86.2 µM and a TGI (DU-145 prostate) of 57.4 µM. For the same compound, the TGI (SN12C renal) was 67.5 µM, the TGI (ACHN renal) was 31 µM and the TGI (RXF 393 renal) was 56.9 µM. The TGI (OVCAR-8 ovarian) was over 100 µM, the TGI (SK-MEL-28 melanoma) was 33.1 µM and the TGI (LOX IMVI melanoma) was 33.5 µM. It also gave a TGI (COLO 205 colon) of 37.2 µM, a TGI (HCT-15 colon) of 30.6 µM and a TGI (SR leukemia) of 60.3 µM. For the same compound, the TGI (NCI-H226 lung) was over 100 µM, the TGI (SF-268 CNS) was over 100 µM and the TGI (UACC-257 melanoma) was 70.5 µM. It also gave a TGI (HCC-2998 colon) of 31.6 µM, a TGI (U251 CNS) of over 100 µM and a TGI (CAKI-1 renal) of 29 µM. For the same compound, the TGI (MDA-MB-231 breast) was 45 µM, the TGI (SK-MEL-5 melanoma) was 44.1 µM and the TGI (SW-620 colon) was 31.6 µM. The TGI (NCI-H23 lung) was 73.5 µM, the TGI (M14 melanoma) was 30.6 µM and the TGI (HL-60(TB) leukemia) was 7.11 µM. The TGI (SF-295 CNS) was over 100 µM, the TGI (NCI-H460 lung) was 38.3 µM and the TGI (CCRF-CEM leukemia) was 8.64 µM. For the same compound, the TGI (K-562 leukemia) was 42.1 µM, the TGI (SK-OV-3 ovarian) was 97 µM and the TGI (SK-MEL-2 melanoma) was 64.1 µM. For the same compound, the TGI (PC-3 prostate) was over 100 µM, the TGI (KM12 colon) was over 100 µM and the TGI (MDA-N) was 67.1 µM. For the same compound, the TGI (IGROV1 ovarian) was 34.2 µM, the TGI (BT-549 breast) was 32.6 µM and the TGI (NCI-H522 lung) was 24.8 µM. It also gave a TGI (RPMI-8226 leukemia) of 45.2 µM, a TGI (OVCAR-3 ovarian) of 36.7 µM and a TGI (MOLT-4 leukemia) of 38.9 µM. For the same compound, the TGI (UO-31 renal) was 43.2 µM, the TGI (NCI/ADR-RES ovarian) was over 100 µM and the TGI (SF-539 CNS) was 55.8 µM. The TGI (EKVX NSCLC) was over 100 µM, the TGI (OVCAR-4 ovarian) was 81.3 µM and the TGI (MCF7 breast) was 91.5 µM. The TGI (SNB-19 CNS) was over 100 µM, the TGI (TK-10 renal) was over 100 µM and the TGI (HOP-62 NSCLC) was over 100 µM. For the same compound, the TGI (786-0 renal) was 29.2 µM and the TGI (HOP-92 NSCLC) was 38.4 µM.
